Test results as given in patent US9005981B2, “Assays utilizing nicotinic acetylcholine receptor subunits” (priority 2008, dated 2015).
Where two headings read alike, the source gives them in different places.

Key:
[1] = system: Drosophila melanogaster flies of the Oregon wild-type strain; experiment: Fly mortality screen, wild-type flies; format: in vivo; settings: 100 ppm in 10% sucrose via cotton wicks, 72 hours post-treatment
Description: (§1) Ten adult Drosophila melanogaster flies (5 males and 5 females) of the Oregon wild-type strain and ten adult flies of a spinosyn-resistant strain were used per treatment. Two sets (of 10 flies) were set-up per treatment. Stocks of spinosyn A and a 21-butenyl-spinosyn analog were formulated at 1000 ppm in 2:1 acetone:water and then diluted to the required concentration in 10% sucrose. Vials received 500 ul of treatment (or solvent for controls) via cotton wicks (approximately ¼ inch) and flies were added to each vial and capped with a cotton plug. Flies were monitored over 72 hours post-treatment while being maintained at room-temperature with a 12:12 light:dark cycle.
(§2) In addition, the spinosyn A resistant flies were >100-fold resistant (based on LD50) to the new class of spinosyns, represented by the 21-butenyl spinosyns.

[2] = system: Drosophila melanogaster flies of a spinosyn-resistant strain; experiment: Fly mortality screen, spinosyn-resistant flies; format: in vivo; settings: for mortality: 100 ppm in 10% sucrose via cotton wicks, 72 hours post-treatment, spinosyn-resistant flies; for resistance of spinosyn A resistant flies compared to wild-type flies (based on LD50): dose-response data, LD50 resistant vs wild-type
Description: as §1, §2

[3] = system: D α6 and C. elegans ric3 expressed in D.Mel-2 cells; format: binding, Drosophila melanogaster
Description: D.Mel-2 cells were seeded into 75 cm^2 flasks at 1.9×10^7 cells/flask in Drosophila SFM containing antibiotic/antimicotic and incubated overnight at 27° C. The transfection mix was prepared in 12×75 mm polystyrene tubes by mixing 1630 μl sterile water, 40 μg pIB/V5-HisA/ric3, 40 μg pIB/V5-HisA/30D and 250 μl CellFectin. The reagents were mixed gently and incubated at room temp for 15 minutes. While the transfection mix was incubating, the cells were washed with 10 ml fresh Drosophila SFM without antibiotics; this media was then removed from the cells and replaced with 6 ml fresh Drosophila SFM without antibiotics. To the transfection mix was added 4 ml Drosophila SFM without antibiotics and this was then transferred to the flask. The reagents were gently mixed by pipetting up and down and then incubated overnight at 27° C.
D.Mel-2 cells were purchased from Invitrogen (Carlsbad, Calif.) and grown in disposable 125 ml shake flasks using 50 ml volume. Cells were subcultured to 3×10^5 cells/ml twice per week in Drosophila SFM containing 5 ml/L Antibiotic-Antimycotic (100×) (Gibco, Carlsbad, Calif.). D.Mel-2 cells were seeded into a 12-well plate at a cell density of 5×10^5 cells/well and incubated overnight at 27° C. In a 12×75 mm polystyrene tube 6 μg pIB/V5-HisA/ric3, 82 μl sterile H2O and 12 μl CellFectin (Invitrogen, Carlsbad, Calif.) were added. The sample was mixed gently and incubated at room temperature for 15 minutes. While the transfection mix was incubating, media from one well of cells was removed and replaced with 1 ml fresh media without antibiotics. After 15 minutes, the media was removed from cells. To this transfection mix, 0.5 ml media (no antibiotics) was added. This solution was then added to the cells. The mixture was incubated for 48 hrs at 27° C. After 48 hrs, the cells were scraped from the plate using a cell scraper and split into 4 wells of a 6-well plate each containing 2 ml Drosophila SFM with antibiotics. Cells were allowed to attach for 1 hr at 27° C.; the media was removed and replaced with 2 ml fresh media containing 25 μg/ml Blasticidin S (Invitrogen, Carlsbad, Calif.). Cells were incubated at 27° C. for 5 days. After 5 days, the cells were scraped loose from the wells and combined into one tube. Cells were spun down at 600 rpm in a tabletop centrifuge; the media was removed and the cells were resuspended into a 50 ml shake culture in fresh Drosophila SFM containing 25 μg/ml Blasticidin S. The cells were incubated at 27° C./140 rpm. Cells were subcultured twice weekly back to cell density of 3×10^5 cells/ml. After 4 weeks the selection was cut back to 10 μg/ml Blasticidin S. After 3 months of growth under selection, a 12 well plate was seeded at 5×10^5 cells/well and cells were incubated over night at 27° C. The following reagents were added to each of three 12×75 mm polystyrene tubes: 2 μg pMT/V5-HisA/30D, 0.15 μg pCoHygro (Invitrogen, Carlsbad, Calif.) (a […] ratio of expression plasmid:selection plasmid), 89 μl sterile H2O and 12 μl CellFectin. The samples were mixed gently and incubated at room temp for 15 minutes and then transfected as described above. After 24 hrs, the media containing transfection mix was removed and replaced with 1 ml fresh media containing antibiotics. The incubation was continued at 27° C. for another 24 hrs. Cells were scraped loose from the 12-well plate (3 wells) and split into 2, 6-well plates. Cells were allowed to attach for 6 hours at which point, the media was replaced with 2 ml/well fresh media containing 200, 150, 100 or 50 μg/ml hygromycin B. The incubation was continued at 27° C.; every 4-5 days, the media was replaced with media containing hygromycin every 4-5 days. After 2 weeks of selection in the plates, the cells from the 200 μg/ml selection, were scraped loose and then gently pelleted and resuspended in 25 ml fresh media containing 200 μg/ml hygromycin B and then placed into a 125 ml shake flask.

[4] = system: nicotinic acetylcholine receptor alpha-6 subunit (30D); format: cell-based, Drosophila melanogaster; further: key: '−' indicates a negligible current was induced; '+' indicates a small amplitude current; '++' indicates a moderate amplitude current; '++++' indicates a large amplitude current
Description: (§3) Xenopus laevis (Xenopus 1, Ann Arbor, Mich.; Nasco, Fort Atkinson, Wis.) were anesthetized by bathing in a solution of 2 g/l tricaine methane sulfonate, and oocytes were surgically removed from the frog and placed in a culture solution that consisted of 96 mM NaCl, 2 mM KCl, 1.8 mM CaCl2, 1 mM MgCl2, 5 mM HEPES, 2.5 mM Na-pyruvate, 100 units/ml penicillin, and 0.1 mg/ml streptomycin, pH 7.6. Oocytes were dispersed in a nominally zero Ca^2+ protease treatment solution to defolliculate the oocytes. The protease treatment solution consisted of either 88 mM NaCl, 2.5 mM KCl, 1 mM MgCl2, 5 mM HEPES, 2.5 mM Na-pyruvate, 100 units/ml penicillin, and 0.1 mg/ml streptomycin, pH 7.6 plus 1.5 mg/ml collagenase IA (Sigma Chemical Co., St. Louis, Mo.). After isolation, the oocytes were thoroughly rinsed and returned to the above Ca^2+ containing culture solution and stored at 18° C.
(§4) Synthesis of cRNA was performed as follows: Plasmid DNA was linearized with one of the following restriction enzymes; Not I, Xho I or Nhe I. The linearized DNA was subsequently used as template for cRNA synthesis using T7 mMessage mMachine kit (Ambion, Austin, Tex.) following the manufacturer's instructions.
(§5) Micropipettes for injection of cRNA into Xenopus oocytes were pulled on a DMZ-Universal Puller (Zeitz-Instruments, München, Germany). The cRNA to be injected was drawn up into the micropipette with negative pressure. Approximately 10-50 ng of cRNA was injected into the oocytes by applying positive pressure using a Nanoject II oocyte injector (Drummond Scientific Co., Broomall, Pa.). Nucleic acid was introduced into the oocytes as follows: (1) nicotinic acetylcholine receptor alpha-6 subunit subunit (30D) (2) nicotinic alpha-7 receptor subunit (34E); (3) nicotinic acetylcholine receptor alpha-6 subunit and C. elegans ric-3 (30D and ric-3); (4) nicotinic alpha-7 receptor subunit and C. elegans ric-3 (34E and ric-3); (5) nicotinic acetylcholine receptor alpha-6 subunit and nicotinic alpha-7 receptor subunit (30D and 34E); and, (6) nicotinic acetylcholine receptor alpha-6 subunit, nicotinic alpha-7 receptor subunit and C. elegans ric-3 (30D, 34E and ric-3).
(§6) The control external solution for voltage clamp recordings consisted of 88 mM NaCl, 1 mM KCl, 0.41 mM CaCl2, 2.4 mM NaHCO3, 0.3 mM Ca(NO3)2, 0.82 mM MgSO4.7H2O, and 15 mM HEPES, pH 7.6. The recording chamber was continuously perfused with a gravity-fed perfusion system. Nicotine (1 mM) was added to the external solution and then added to the perfusate for 30 seconds. Then, nicotine was washed from the external solution a minimum of 10 minutes. Thereafter, spinosyn A was dissolved in dimethylsulfoxide (DMSO) and then dissolved in the external solution at a final concentration of 10 μM and then added to the perfusate for 60 seconds. Then, the spinosyn A was washed from the external solution. The final concentration of DMSO never exceeded 0.1% (v/v).

[5] = system: nicotinic acetylcholine receptor alpha-5 subunit (34E); format: cell-based, Drosophila melanogaster; further: key: '−' indicates a negligible current was induced; '+' indicates a small amplitude current; '++' indicates a moderate amplitude current; '++++' indicates a large amplitude current
Description: as §3, §4, §5, §6

34E/ric-3 = format: cell-based, Drosophila melanogaster; further: key: '−' indicates a negligible current was induced; '+' indicates a small amplitude current; '++' indicates a moderate amplitude current; '++++' indicates a large amplitude current
Description: as §3, §4, §5, §6

Dα6-nicotinic receptor = format: binding, Drosophila melanogaster
Description: Xenopus oocytes were injected as previously described for the electrophysiological assay and were used intact for binding assays.
Two main radioligands were used in binding assays: the conventional α7 radioligand, [^3]methyllycaconitine (MLA) and [^3]dihydrospinosyn A (DHSA). For both radioligands, the Binding Buffer used consisted of 10 mM sodium phosphate (7.2-7.4). All experiments using D.Mel-2 cell suspensions were carried out with 50 μl of cell suspension. For Xenopus oocyte binding assays, oocytes were pooled (2-5 oocytes) and transferred to 1 ml Binding Buffer. This was followed by gently aspirating the Binding Buffer and replacing with fresh Binding Buffer twice, to wash out any residual oocyte bathing media. The final volume of buffer added to each pool of oocytes was 50-100 μl. […] Subsequent dilutions were made in Binding Buffer. The final concentration of solvent was maintained at less than 0.1% in each well. […] For the cell extracts, bound radioactivity and free radioactivity fractions were separated by gentle vacuum through GF/C glass fiber filter mats using a TomTec (CT) 96-well cell harvester. […] Filter mats were dried in an oven at 60° C. and the radioactivity from samples was counted for three minutes with a Wallac MicroBeta Counter (Wallac, Conn.) using Meltilex solid-scintillant (PerkinElmer, Finland). […]

30D/ric-3 = format: cell-based, Drosophila melanogaster; settings: spinosyn A 10 μM for 60 seconds, oocytes clamped to −60 mV, peak current
Description: as §3, §4, §5, §6

34E/30D/ric-3 = format: cell-based, Drosophila melanogaster; set-up: key to the marks not given beside the values; settings: spinosyn A 10 μM for 60 seconds, oocytes clamped to −60 mV, peak current
Description: as §3, §4
(§7) Micropipettes for injection of cRNA into Xenopus oocytes were pulled on a DMZ-Universal Puller (Zeitz-Instruments, München, Germany). […]

34E/30D = format: cell-based, Drosophila melanogaster; set-up: key to the marks not given beside the values; settings: spinosyn A 10 μM for 60 seconds, oocytes clamped to −60 mV, peak current
Description: as §3, §4, §7

[6] = D.Mel-2 cells expressing D α6 and C. elegans ric3
Wherever Spinosyn A Response is given: key: '−' indicates a negligible current was induced; '+' indicates a small amplitude current; '++' indicates a moderate amplitude current; '++++' indicates a large amplitude current.

21-butenyl spinosyn
mortality [1]: all wild-type flies exhibited mortality | mortality [2]: no significant mortality | resistance of spinosyn A resistant flies compared to wild-type flies (based on LD50) [2]: > 100 fold

CCN1C[C@]2(COC(=O)c3ccccc3N3C(=O)C[C@H](C)C3=O)CC[C@H](OC)[C@@]34[C@@H]5C[C@H]6[C@H](OC)[C@@H]5[C@](O)(C[C@@H]6OC)[C@@](O)([C@@H](OC)[C@H]23)[C@@H]14 [MLA, methyllycaconitine]
displacement of [3H]DHSA binding [3, 6]: can be demonstrated at higher concentrations | overall affinity for this receptor complex ([3]; [3H]DHSA binding assay, D.Mel-2 cells): relatively poor

CN1CCCC1c1cccnc1 (centres unmarked) [Nicotine, nicotine]
Nicotine Response [4]: − | Nicotine Response [5]: + | Nicotine Response (34E/ric-3): + | displacement of [3H]DHSA binding [3]: displacement | % Displacement of Total Binding (Dα6-nicotinic receptor): 72%

CC[C@H]1CCC[C@H](O[C@H]2CC[C@H](N(C)C)[C@@H](C)O2)[C@@H](C)C(=O)C2=C[C@@H]3[C@@H](C=C[C@@H]4C[C@@H](O[C@@H]5O[C@@H](C)[C@H](OC)[C@@H](OC)[C@H]5OC)C[C@@H]34)[C@@H]2CC(=O)O1 [Spinosyn A, spinosyn A]
Spinosyn A Response (30D/ric-3): + | Spinosyn A Response ([4]; 30D, spinosyn A 10 μM for 60 seconds, oocytes clamped to −60 mV, peak current): − | Spinosyn A Response ([5]; 34E, spinosyn A 10 μM for 60 seconds, oocytes clamped to −60 mV, peak current): − | Spinosyn A Response (34E/ric-3; 34E/ric-3, spinosyn A 10 μM for 60 seconds, oocytes clamped to −60 mV, peak current): − | mortality [1]: all wild-type flies exhibited mortality | displacement of [3H]DHSA binding [3, 6]: significant displacement | % Displacement of Total Binding (Dα6-nicotinic receptor; 10 μM, [3H]MLA, intact Xenopus oocytes 3 days post-injection with Dmα6): 72% | mortality [2]: no significant mortality | resistance of spinosyn A resistant flies compared to wild-type flies (based on LD50) [2]: at least 100 fold | Spinosyn A Response (34E/30D/ric-3): ++++ | Spinosyn A Response (34E/30D): ++

C[N+](C)(C)CCOC(N)=O.[Cl-] [carbamylcholine]
displacement of [3H]DHSA binding [3, 6]: did not significantly displace

CC[C@H]1CCC[C@H](O[C@H]2CC[C@H](N(C)C)[C@@H](C)O2)[C@@H](C)C(=O)C2=C[C@H]3[C@@H]4C[C@H](O[C@@H]5O[C@@H](C)[C@H](OC)[C@@H](OC)[C@H]5OC)C[C@H]4CC[C@H]3[C@@H]2CC(=O)O1 [dihydrospinosyn A]
displacement of [3H]DHSA binding [3, 6]: significant displacement

Clc1ccc(C2CC3CCC2N3)cn1 (centres unmarked) [epibatidine]
displacement of [3H]DHSA binding [3, 6]: did not significantly displace

NS(=O)(=O)c1cc(C(=O)O)c(NCc2ccco2)cc1Cl [furosemide]
displacement of [3H]DHSA binding [3]: No significant displacement

O=[N+]([O-])NC1=NCCN1Cc1ccc(Cl)nc1 [imidacloprid]
displacement of [3H]DHSA binding [3, 6]: did not significantly displace

CN1[C@@H](CC(=O)c2ccccc2)CCC[C@H]1C[C@H](O)c1ccccc1 [lobeline]
displacement of [3H]DHSA binding [3, 6]: did not significantly displace

CC[C@H]1CCC[C@H](O)[C@@H](C)C(=O)C2=C[C@@H]3[C@@H](C=C[C@@H]4C[C@@H](O[C@@H]5O[C@@H](C)[C@H](OC)[C@@H](OC)[C@H]5OC)C[C@@H]34)[C@@H]2CC(=O)O1 [pseudoagylcone of spinosyn A]
displacement of [3H]DHSA binding [3, 6]: Nor was there significant displacement

C[C@H](O)[C@H](O)[C@@H](O)[C@@H](O)C=O [rhamnose]
displacement of [3H]DHSA binding [3, 6]: No significant displacement

CN1COCN(Cc2cnc(Cl)s2)/C1=N\[N+](=O)[O-] [thiamethoxam]
displacement of [3H]DHSA binding [3, 6]: did not significantly displace

alpha-bungarotoxin
displacement of [3H]DHSA binding [3]: can be demonstrated at higher concentrations | overall affinity for this receptor complex [3]: relatively poor
